molecular target: T1, IRAK4 (Homo sapiens, UniProt Q9NWZ3); test: IRAK-4 activity inhibition assay (Caliper); format: biochemical; conditions: 37 μM ATP, 3.5 nM IRAK4
T1 sequence (Q9NWZ3 1-460): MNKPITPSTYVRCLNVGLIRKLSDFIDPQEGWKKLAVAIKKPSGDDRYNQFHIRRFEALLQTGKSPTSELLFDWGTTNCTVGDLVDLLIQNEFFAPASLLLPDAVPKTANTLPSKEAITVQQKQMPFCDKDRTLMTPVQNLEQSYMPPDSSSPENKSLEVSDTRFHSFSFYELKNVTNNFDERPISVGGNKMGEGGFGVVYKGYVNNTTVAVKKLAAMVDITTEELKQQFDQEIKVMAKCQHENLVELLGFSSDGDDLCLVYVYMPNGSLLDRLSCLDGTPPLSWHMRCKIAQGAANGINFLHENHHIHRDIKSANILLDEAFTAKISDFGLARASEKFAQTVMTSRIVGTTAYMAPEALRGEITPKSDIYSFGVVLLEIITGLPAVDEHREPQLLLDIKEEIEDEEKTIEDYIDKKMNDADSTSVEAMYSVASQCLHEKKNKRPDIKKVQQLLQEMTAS

IC50 [µM] | Compound
5 to 20 | C[C@@H](O)CNC(=O)C[C@H]1CCc2sc3ncnc(O[C@H]4CC[C@H](N(C)C)CC4)c3c21 [Compound I-141, 2-((R)-4-(((1r,4R)-4-(dimethylamino)cyclohexyl)oxy)-6,7-dihydro-5H-cyclopenta[4,5]thieno[2,3-d]pyrimidin-5-yl)-N—((R)-2-hydroxypropyl)acetamide]
5 to 20 | CN1Cc2sc3ncnc(O[C@H]4CC[C@H](N5CCOCC5)CC4)c3c2C1 [Compound I-196, 4-methyl-12-[[4-(morpholin-4-yl)cyclohexyl]oxy]-7-thia-4,9,11-triazatricyclo[6.4.0.0[2,6]]dodeca-1(12),2(6),8, 10-tetraene]
< 5 | C#CCOC[C@@H]1CCc2sc3ncnc(O[C@H]4CC[C@H](N(C)C)CC4)c3c21 [Compound I-48, N,N-dimethyl-4-[[(3R)-3-[(prop-2-yn-1-yloxy)methyl]-7-thia-9,11-diazatricyclo[6.4.0.0[2,6]]dodeca-1(8),2(6),9,11-tetraen-12-yl]oxy]cyclohexan-1-amine]
5 to 20 | C[C@]1(N)CC[C@H](Oc2ncnc3sc4c(c23)[C@@H](CC(N)=O)CC4)CC1 [Compound I-161, 2-[(3R)-12-[(4-amino-4-methylcyclohexyl)oxy]-7-thia-9,11-diazatricyclo[6.4.0.0[2,6]]dodeca-1(8),2(6),9,11-tetraen-3-yl]acetamide]
< 5 | CC[S@@+]([O-])C[C@H]1CCc2sc3ncnc(O[C@H]4CC[C@H](N(C)C)CC4)c3c21 (single isomer, unassigned) [Compound I-46]
< 5 | C[C@@H](O)C[C@H]1CCc2sc3ncnc(O[C@H]4CC[C@H](N(C)C)CC4)c3c21 [Compound I-41, (2R)-1-[(3R)-12-[[4-(dimethylamino)cyclohexyl]oxy]-7-thia-9,11-diazatricyclo[6.4.0.0[2,6]]dodeca-1(8),2(6),9,11-tetraen-3-yl]propan-2-ol]
20 to 50 | CN(C)[C@H]1CC[C@H](Nc2ncnc3sc4c(c23)C(CN2CCCC2)CC4)CC1 (stereo partly drawn) [Compound I-10, (1r,4r)-N1,N1-dimethyl-N4-(5-(pyrrolidin-1-ylmethyl)-6,7-dihydro-5H-cyclopenta[4,5]thieno[2,3-d]pyrimidin-4-yl)cyclohexane-1,4-diamine]
20 to 50 | COC(=O)N1Cc2sc3ncnc(O[C@H]4CC[C@H](N5CCOCC5)CC4)c3c2C1 [Compound I-199, methyl 12-[[4-(morpholin-4-yl)cyclohexyl]oxy]-7-thia-4,9, 11-triazatricyclo[6.4.0.0[2,6]]dodeca-1(12),2(6),8, 10-tetraene-4-carboxylate]
< 5 | OCC[C@@H]1CCc2sc3ncnc(O[C@H]4CC[C@H](N5CCOCC5)CC4)c3c2C1 [Compound I-145, 2-((R)-4-(((1r,4R)-4-morpholinocyclohexyl)oxy)-5,6,7,8-tetrahydrobenzo[4,5]thieno[2,3-d]pyrimidin-6-yl)ethanol]
5 to 20 | CN(C)[C@H]1CC[C@H](Nc2ncnc3sc4c(c23)C(C)(C)CC4)CC1 [Compound I-6, (1r,4r)-N1-(5,5-dimethyl-6,7-dihydro-5H-cyclopenta[4,5]thieno[2,3-d]pyrimidin-4-yl)-N4,N4-dimethylcyclohexane-1,4-diamine]
< 5 | CC[C@@H](O)C[C@H]1CCc2sc3ncnc(O[C@H]4CC[C@](CC)(N(C)C)CC4)c3c21 [Compound I-101, (2R)-1-[(3R)-12-[[4-(dimethylamino)-4-ethylcyclohexyl]oxy]-7-thia-9,11-diazatricyclo[6.4.0.0[2,6]]dodeca-1(8),2(6),9,11-tetraen-3-yl]butan-2-ol]
< 5 | CN(CC(=O)N1CCCC1)[C@H]1CC[C@H](Nc2ncnc3sc4c(c23)[C@@H](CC(N)=O)CC4)CC1 [Compound I-123, 2-[(3R)-12-[(4-[methyl[2-oxo-2-(pyrrolidin-1-yl)ethyl]amino]cyclohexyl)amino]-7-thia-9,11-diazatricyclo[6.4.0.0[2,6]]dodeca-1(8),2(6),9,11-tetraen-3-yl]acetamide]
< 5 | NC(=O)[C@@H]1CCc2sc3ncnc(N[C@H]4CC[C@H](N5CCOCC5)CC4)c3c2C1 [Compound I-208, (12R)-3-[[4-(morpholin-4-yl)cyclohexyl]amino]-8-thia-4,6-diazatricyclo[7.4.0.0[2,7]]trideca-1(9),2(7),3,5-tetraene-12-carboxamide]
< 5 | CN(C)[C@H]1CC[C@H](Oc2ncnc3sc4c(c23)CN(S(N)(=O)=O)CC4)CC1 [Compound I-238, 3-[[4-(dimethylamino)cyclohexyl]oxy]-8-thia-4,6, 12-triazatricyclo[7.4.0.0[2,7]]trideca-1(9),2(7),3,5-tetraene-12-sulfonamide]
< 5 | COCCN(C)[C@H]1CC[C@H](Oc2ncnc3sc4c(c23)[C@@H](CC(N)=O)CC4)CC1 [Compound I-130, 2-((R)-4-(((1r,4R)-4-((2-methoxyethyl)(methyl)amino)cyclohexyl)oxy)-6,7-dihydro-5H-cyclopenta[4,5]thieno[2,3-d]pyrimidin-5-yl)acetamide]
5 to 20 | CN[C@H]1CC[C@H](Oc2ncnc3sc4c(c23)CN(C(C)=O)CC4)CC1 [Compound I-202, 1-(3-[[4-(methylamino)cyclohexyl]oxy]-8-thia-4,6,12-triazatricyclo[7.4.0.0[2,7]]trideca-1 (9),2,4,6-tetraen-12-yl)ethan-1-one]
< 5 | NC(=O)C[C@H]1CCc2sc3ncnc(OC4CCC(NC5COC5)CC4)c3c21 (stereo partly drawn) [Compound I-132, 2-[(3R)-12-([4-[(oxetan-3-yl)amino]cyclohexyl]oxy)-7-thia-9,11-diazatricyclo[6.4.0.0[2,6]]dodeca-1(8),2(6),9,11-tetraen-3-yl]acetamide]
< 5 | CC#CCOC[C@H]1CCc2sc3ncnc(O[C@H]4CC[C@H](N(C)C)CC4)c3c21 [Compound I-56, 4-[[(3S)-3-[(but-2-yn-1-yloxy)methyl]-7-thia-9,11-diazatricyclo[6.4.0.0[2,6]]dodeca-1(8),2(6),9,11-tetraen-12-yl]oxy]-N,N-dimethylcyclohexan-1-amine]
< 5 | NC(=O)C[C@H]1CCc2sc3ncnc(O[C@H]4CC[C@H](N)CC4)c3c21 [Compound I-150, 2-[(3R)-12-[(4-aminocyclohexyl)oxy]-7-thia-9,11-diazatricyclo[6.4.0.0[2,6]]dodeca-1(12),2(6),8,10-tetraen-3-yl]acetamide]
> 50 | CN(C)[C@H]1CC[C@H](Nc2ncnc3sc4c(c23)C(CC(=O)N2CC[C@H](O)C2)CC4)CC1 (stereo partly drawn) [Compound I-15, 2-(4-(((1r,4S)-4-(dimethylamino)cyclohexyl)amino)-6,7-dihydro-5H-cyclopenta[4,5]thieno[2,3-d]pyrimidin-5-yl)-1-((S)-3-hydroxypyrrolidin-1-yl)ethanone]
5 to 20 | COC(=O)CC1CCc2sc3ncnc(N[C@H]4CC[C@H](N(C)C)CC4)c3c21 (stereo partly drawn) [Compound I-11]
< 5 | C[C@H](O)C[C@H]1CCc2sc3ncnc(O[C@H]4CC[C@H](N(C)CC(=O)N5CCCC5)CC4)c3c21 [Compound I-69, 2-(((1R,4r)-4-(((R)-5-((S)-2-hydroxypropyl)-6,7-dihydro-5H-cyclopenta[4,5]thieno[2,3-d]pyrimidin-4-yl)oxy)cyclohexyl)(methyl)amino)-1-(pyrrolidin-1-yl)ethanone]
20 to 50 | CCOC(=O)C1CCc2sc3ncnc(N[C@H]4CC[C@H](N)CC4)c3c21 (stereo partly drawn) [Compound I-2, ethyl 4-(((1r,4r)-4-aminocyclohexyl)amino)-6,7-dihydro-5H-cyclopenta[4,5]thieno[2,3-d]pyrimidine-5-carboxylate]
20 to 50 | CN(C)[C@H]1CC[C@H](Nc2ncnc3sc4c(c23)C(C(=O)NCc2ccccc2)CC4)CC1 (stereo partly drawn) [Compound I-24, N-benzyl-12-[[4-(dimethylamino)cyclohexyl]amino]-7-thia-9,11-diazatricyclo[6.4.0.0̂[2,6]]dodeca-1(12),2(6),8,10-tetraene-3-carboxamide]
< 5 | CN(C)[C@H]1CC[C@H](Nc2ncnc3sc4c(c23)C(CO)CC4)CC1 (stereo partly drawn) [Compound I-3]

tested on: THP-1 cells; test: LPS induced cytokine (TNFα and IL8) production assay in THP-1 cells; format: cell-based; conditions: Homo sapiens, 300 ng/mL LPS, read-out: IL8 production IC50
Description: Cytokine Production Assay
Provided compounds were also assayed in an LPS (Lipopolysacharide) or R848 (TLR-7 agonist) induced cytokine (TNFα and IL8) production assay in THP-1 cells, human peripheral blood mononuclear cells (hPBMC), and whole blood. The exemplary protocol for this assay in THP-1 cells was as follows below.
THP-1 cells from ATCC (TIB-202) were cultured in RPMI Medium 1640 (Invitrogen, Cat No. A10491-01), 10% fetal bovine serum (Invitrogen, Cat No. 10099141, Lot No. 8172882) containing 100 U/mL Penicillin, 100 μg/mL streptomycin (Invitrogen, Cat No. 15140-122), and 50 uM 2-Mercaptoethanol (Invitrogen, Cat No. 21985023). LPS-EK ultra pure (Invivogen, Cat No. tlrl-peklps) was used to induce IL8 and TNFα production, that was detected in the cell culture supernatant by IL8 HTRF kit (Cisbio, Cat No. 62IL8PEB) and TNFα HTRF kit (Cisbio, Cat No. 62TNFPEB), as per manufacturer instructions. Cells were cultured in 96 well assay plates at 100,000 cells per well, and compounds diluted in final 0.3% DMSO were pre-incubated with cells for 1 hour prior to stimulation with 300 ng/mL LPS. Cytokine production in cell supernatant was measured at 5 hours for TNFα and IL8 production, and for 16 hours for IL8 production and assessment of cell viability.
The compound numbers correspond to the compound numbers in Table 1. […] “NA” stands for “not assayed.”

IC50 [µM] | Compound
1 to 5 | NC(=O)[C@H](O)C[C@H]1CCc2sc3ncnc(O[C@H]4CC[C@H](N5CCOCC5)CC4)c3c21 [Compound I-93, (R)-2-hydroxy-3-((R)-4-(((1r,4R)-4-morpholinocyclohexyl)oxy)-6,7-dihydro-5H-cyclopenta[4,5]thieno[2,3-d]pyrimidin-5-yl)propanamide]

same assay, conditions: Homo sapiens, 300 ng/mL LPS, read-out: TNFα production IC50

IC50 [µM] | Compound
1 to 5 | NC(=O)[C@H](O)C[C@H]1CCc2sc3ncnc(O[C@H]4CC[C@H](N5CCOCC5)CC4)c3c21 [Compound I-93, (R)-2-hydroxy-3-((R)-4-(((1r,4R)-4-morpholinocyclohexyl)oxy)-6,7-dihydro-5H-cyclopenta[4,5]thieno[2,3-d]pyrimidin-5-yl)propanamide]
